Assay results reported in ChEMBL document CHEMBL1201862, “PubChem BioAssay data set” (2004).
Activity calls are given as the source filed them.

Columns and labels:
Beta-galactosidase = Beta-galactosidase (Escherichia coli, UniProt Q8VNN2); assay: PubChem AID 485352; assay type: functional
BJ [1] = assay: BJ-TERT fibroblast viability loss – cell-based, RAS-independent, luminescence, dose response (AID 1933); assay type: functional; settings: Homo sapiens
BJ [2] = assay: BJ-TERT-LT-ST fibroblast viability loss – cell-based, RAS-independent, luminescence, dose response (AID 1935); assay type: functional; settings: Homo sapiens;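 also: BJ fibroblasts immortalized with TERT plus LT and ST oncogenes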
[3] = viability loss in THP-1 monocytes – THP-1 cells, cytotoxicity control for Vif-APOBEC3G degradation inhibitor project, dose response (AID 1117359); assay type: functional; settings: THP-1
[4] = reduction of Shn3 3'UTR-driven luciferase in osteoblasts – cell-based, Clone20 osteoblasts, firefly luciferase, cherry-picked, dose response (AID 624132); assay type: functional;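 also: firefly luciferase luminescence from reporter carrying the Shn3 3'UTR in osteoblasts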
Cytochrome P450 2D6 = Cytochrome P450 2D6 (Homo sapiens, UniProt P10635);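 also: CYP2D6 member of a cytochrome P450 panel assay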
Beta Lactamase = Beta Lactamase (Pseudomonas aeruginosa, UniProt Q932Y6); assay: BLA reporter interference, concentration series – BLA reporter cells, FRET fluorescence, artefact control for TLR9-MyD88 binding inhibitor project, dose response (AID 588341); assay type: cell-based;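 also: cell based assay in CHO-K1 cells stably expressing beta-lactamase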
BJ [5] = assay: cells; assay type: functional, cell-based; settings: Homo sapiens
[6] = biological target: Glucose-6-phosphate 1-dehydrogenase (Homo sapiens, UniProt P11413); assay: inhibition of Homo sapiens G6PD, dose series – biochemical, fluorescence, selectivity assay for P. falciparum G6PD inhibitor project, dose response (AID 504792); assay type: functional
[7] = biological target: T1, Replicative DNA helicase DnaB (Mycobacterium tuberculosis, UniProt P9WMR3); assay: DnaB intein splicing inhibitors, dose response, biochemical, cell-free fluorescence (AID 449749); assay type: functional
T1 sequence (P9WMR3 whole entry): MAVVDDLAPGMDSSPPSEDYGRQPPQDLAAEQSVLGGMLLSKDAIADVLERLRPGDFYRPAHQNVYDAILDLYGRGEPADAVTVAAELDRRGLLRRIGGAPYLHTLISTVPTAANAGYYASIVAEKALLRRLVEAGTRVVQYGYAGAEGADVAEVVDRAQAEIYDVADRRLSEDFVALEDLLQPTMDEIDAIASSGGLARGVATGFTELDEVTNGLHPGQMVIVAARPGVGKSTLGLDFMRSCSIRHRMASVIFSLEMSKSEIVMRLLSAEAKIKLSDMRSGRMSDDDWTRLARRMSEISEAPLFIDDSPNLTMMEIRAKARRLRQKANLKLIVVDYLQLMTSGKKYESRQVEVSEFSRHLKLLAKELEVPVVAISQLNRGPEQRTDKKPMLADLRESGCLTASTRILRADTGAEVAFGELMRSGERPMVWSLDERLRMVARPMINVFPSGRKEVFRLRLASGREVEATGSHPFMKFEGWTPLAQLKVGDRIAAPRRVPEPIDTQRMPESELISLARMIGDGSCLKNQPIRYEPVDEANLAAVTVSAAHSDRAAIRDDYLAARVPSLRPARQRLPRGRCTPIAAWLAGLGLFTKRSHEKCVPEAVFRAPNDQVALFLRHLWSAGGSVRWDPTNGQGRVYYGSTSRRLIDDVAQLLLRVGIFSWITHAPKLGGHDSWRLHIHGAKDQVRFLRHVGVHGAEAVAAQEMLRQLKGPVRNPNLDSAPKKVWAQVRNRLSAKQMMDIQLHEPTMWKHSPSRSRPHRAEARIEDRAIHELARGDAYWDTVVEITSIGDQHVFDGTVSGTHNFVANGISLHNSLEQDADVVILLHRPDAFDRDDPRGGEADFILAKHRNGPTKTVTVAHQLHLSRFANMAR

Cytochrome P450 3A4 = Cytochrome P450 3A4 (Homo sapiens, UniProt P08684);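 also: CYP3A4 tested as one member of a cytochrome P450 panel screen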
Fatty acid synthase [8] = biological target: T2, Fatty acid synthase (Homo sapiens, UniProt P49327); assay: inhibition of human FAS-TE enzyme activity – biochemical, endpoint fluorescence intensity, uHTS hits, dose response (AID 624327); assay type: functional;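 also: fluorescence from hydrolysis of an O-methyl fluorescein acyl ester substrate by the enzyme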
[9] = DRD fibroblast viability loss – cell-based, non-viral oncogenic, luminescence, dose response (AID 1934); assay type: functional; settings: Homo sapiens
[10] = Luminescence Cell-Based Dose Retest to Confirm Inhibitors of Cancer Stem Cells. [Related pubchem assays (depositor defined):AID2717, AID2721]; assay type: functional; settings: Homo sapiens
Fatty acid synthase [11] = biological target: T2, Fatty acid synthase; assay: inhibition of human FAS-TE enzyme activity – biochemical, kinetic fluorescence intensity, dose response (AID 624326); assay type: functional;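 also: rate of fluorescence rise from hydrolysis of a fluorogenic O-methyl fluorescein ester substrate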
[12] = biological target: T3, Sentrin-specific protease 8 (Homo sapiens, UniProt Q96LD8); assay type: functional
T3 sequence (Q96LD8 whole entry): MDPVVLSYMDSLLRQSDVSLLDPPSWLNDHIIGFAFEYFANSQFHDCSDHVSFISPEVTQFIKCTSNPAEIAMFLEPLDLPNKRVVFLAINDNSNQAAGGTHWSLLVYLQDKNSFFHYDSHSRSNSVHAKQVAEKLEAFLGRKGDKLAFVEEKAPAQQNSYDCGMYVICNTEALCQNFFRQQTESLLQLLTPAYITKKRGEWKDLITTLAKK

[13] = non-specific 3'UTR reporter inhibition in Clone20-Shn3RL – cell-based, Renilla luciferase, cherry-picked, counter-screen for Shn3 inhibitor project, dose response (AID 624133); assay type: functional
[14] = biological target: T3, Sentrin-specific protease 8; assay type: functional; remark: listed apart in the source
Protein RecA = biological target: T4, Protein RecA (Mycobacterium tuberculosis, UniProt P9WHJ3); assay: Fluorescence Cell-Free Homogeneous Dose Retest to Identify Inhibitors of RecA-Intein Splicing Activity. [Related pubchem assays (depositor defined):AID2097, AID2223, AID489010, AID492950]; assay type: functional
T4 sequence (P9WHJ3 whole entry): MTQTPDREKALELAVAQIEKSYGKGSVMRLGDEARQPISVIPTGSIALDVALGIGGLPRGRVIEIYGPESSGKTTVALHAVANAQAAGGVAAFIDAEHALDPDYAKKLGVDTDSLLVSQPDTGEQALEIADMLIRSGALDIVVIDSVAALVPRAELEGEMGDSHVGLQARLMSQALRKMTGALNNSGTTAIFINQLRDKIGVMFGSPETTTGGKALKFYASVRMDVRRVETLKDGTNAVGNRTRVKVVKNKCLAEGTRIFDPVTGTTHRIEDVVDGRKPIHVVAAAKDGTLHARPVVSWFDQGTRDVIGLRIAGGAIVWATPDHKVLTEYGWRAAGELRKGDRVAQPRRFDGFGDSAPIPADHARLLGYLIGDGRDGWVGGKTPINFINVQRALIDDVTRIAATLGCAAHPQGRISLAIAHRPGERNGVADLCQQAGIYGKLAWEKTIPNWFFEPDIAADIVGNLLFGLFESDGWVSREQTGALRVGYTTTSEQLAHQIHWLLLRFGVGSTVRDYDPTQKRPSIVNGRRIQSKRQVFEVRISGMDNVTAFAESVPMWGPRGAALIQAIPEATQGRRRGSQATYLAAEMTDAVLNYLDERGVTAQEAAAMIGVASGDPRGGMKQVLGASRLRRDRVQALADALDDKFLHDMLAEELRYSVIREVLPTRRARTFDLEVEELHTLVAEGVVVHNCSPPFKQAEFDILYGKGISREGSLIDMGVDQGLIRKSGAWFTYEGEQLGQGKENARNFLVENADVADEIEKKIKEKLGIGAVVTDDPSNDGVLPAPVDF

[15] = loss of viability in HepG2 cells – cell-based, CellTiter-Glo, cherry-picked, cytotoxicity control for Shn3 inhibitor project, dose response (AID 624134); assay type: functional
CHO = CHO cell viability loss, potency – luminescence, cytotoxicity control for TLR9-MyD88 binding inhibitor project, dose response (AID 588339); assay type: functional, cell-based, hamster; settings: Cricetulus griseus;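 also: CHO cells stably coexpressing TLR9 and MyD88 fusions from primary screen; compound exposure lasted 48 hours before viability readout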
[16] = biological target: T5, Type-1 angiotensin II receptor (Homo sapiens, UniProt P30556); assay: antagonism of angiotensin II type 1 receptor – cell-based, uHTS hits, selectivity assay for APJ receptor antagonist project, dose response (AID 463214); assay type: functional;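 also: antagonist potency against angiotensin II stimulated AT1 response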
T5 sequence (P30556 whole entry): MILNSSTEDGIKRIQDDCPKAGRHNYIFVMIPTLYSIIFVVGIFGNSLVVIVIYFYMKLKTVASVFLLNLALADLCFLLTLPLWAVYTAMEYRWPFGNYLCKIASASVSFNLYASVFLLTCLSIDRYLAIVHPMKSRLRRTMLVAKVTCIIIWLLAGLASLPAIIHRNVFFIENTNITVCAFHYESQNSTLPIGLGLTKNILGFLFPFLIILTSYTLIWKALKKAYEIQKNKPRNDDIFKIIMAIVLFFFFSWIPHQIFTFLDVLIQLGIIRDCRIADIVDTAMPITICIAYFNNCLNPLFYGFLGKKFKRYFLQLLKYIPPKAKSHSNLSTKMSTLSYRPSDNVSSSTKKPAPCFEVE

[17] = NIH3T3 cell viability loss – ATP luminescence, mouse fibroblasts, counter-screen, dose response (AID 2010); assay type: functional, cell-based;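 also: cells exposed to compound for about 90 hours before reading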
[18] = Trypanosoma cruzi growth suppression in host cells – NIH3T3 host cells, beta-gal luminescence, confirmation (AID 2044); assay type: functional, cell-based;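 also: intracellular parasites grown in NIH/3T3 mouse fibroblasts as host cells; luminescent beta-galactosidase reporter signal from transgenic T. cruzi replicating inside host cells; inhibitors lower the luminescence signal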
[19] = alpha-synuclein stem-loop luciferase translation blockers – H4 neuroglioma cells, luminescence, confirmation (AID 1988); assay type: functional, cell-based
HeLa = assay: Cytotoxicity counterscreen assay for transcriptional activators of heat shock protein 70 (Hsp70). [Related pubchem assays: 1203, 1252 ]; assay type: functional; settings: Homo sapiens
[20] = Luminescence Cell-Based Dose Response HTS to Identify Inhibitors of 5'UTR Stem-Loop Driven Prion Protein mRNA Translation in H4 Neuroglioblastoma Cells. [Related pubchem assays: 1827 (Project Summary), 1813 (Primary HTS)]; assay type: functional
[21] = luciferase reporter signal suppression in cells – H4 neuroglioma cells, luminescence, dose response (AID 1990); assay type: functional, cell-based
[22] = biological target: Protein kinase C theta type (Homo sapiens, UniProt Q04759); assay: Navigating the Kinome. Panel member name: PRKCQ; assay type: functional
[23] = biological target: T6, cAMP-dependent protein kinase catalytic subunit PRKX (Homo sapiens, UniProt P51817); assay type: functional
T6 sequence (P51817 whole entry): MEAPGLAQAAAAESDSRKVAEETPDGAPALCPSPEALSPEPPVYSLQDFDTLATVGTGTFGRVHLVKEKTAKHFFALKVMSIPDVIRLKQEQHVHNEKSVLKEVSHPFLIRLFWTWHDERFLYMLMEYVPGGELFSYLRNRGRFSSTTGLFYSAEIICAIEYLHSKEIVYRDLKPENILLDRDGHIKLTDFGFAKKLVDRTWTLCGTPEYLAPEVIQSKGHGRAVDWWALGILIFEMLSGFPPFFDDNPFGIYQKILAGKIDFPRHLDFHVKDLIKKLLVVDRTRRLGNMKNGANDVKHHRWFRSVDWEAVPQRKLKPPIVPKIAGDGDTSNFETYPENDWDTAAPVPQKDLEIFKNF

[24] = biological target: Dual specificity protein kinase CLK4 (Homo sapiens, UniProt Q9HAZ1); assay type: functional
[25] = biological target: Dual specificity mitogen-activated protein kinase kinase 2 (Homo sapiens, UniProt P36507); assay: Navigating the Kinome. Panel member name: MAP2K2; assay type: functional
[26] = biological target: Mitogen-activated protein kinase 9 (Homo sapiens, UniProt P45984); assay type: functional;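 also: value from a kinome panel profiling assay, MAPK9 panel entry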
[27] = biological target: Fibroblast growth factor receptor 1 (Homo sapiens, UniProt P11362); assay type: functional
[28] = biological target: Insulin-like growth factor 1 receptor (Homo sapiens, UniProt P08069); assay: Navigating the Kinome. Panel member name: IGF1R; assay type: functional
Activated CDC42 kinase 1 = Activated CDC42 kinase 1 (Homo sapiens, UniProt Q07912); assay: Navigating the Kinome. Panel member name: ACK1; assay type: functional
[29] = biological target: Leukocyte tyrosine kinase receptor (Homo sapiens, UniProt P29376); assay: Navigating the Kinome. Panel member name: LTK; assay type: functional
[30] = biological target: High affinity nerve growth factor receptor (Homo sapiens, UniProt P04629); assay type: functional;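 also: NTRK1 tested as one member of a kinome-wide profiling panel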
[31] = biological target: Ribosomal protein S6 kinase alpha-3 (Homo sapiens, UniProt P51812); assay type: functional;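 also: measured within a kinome-wide profiling panel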
Chain of Ribosomal protein S6 kinase alpha-3 (P51812 whole entry): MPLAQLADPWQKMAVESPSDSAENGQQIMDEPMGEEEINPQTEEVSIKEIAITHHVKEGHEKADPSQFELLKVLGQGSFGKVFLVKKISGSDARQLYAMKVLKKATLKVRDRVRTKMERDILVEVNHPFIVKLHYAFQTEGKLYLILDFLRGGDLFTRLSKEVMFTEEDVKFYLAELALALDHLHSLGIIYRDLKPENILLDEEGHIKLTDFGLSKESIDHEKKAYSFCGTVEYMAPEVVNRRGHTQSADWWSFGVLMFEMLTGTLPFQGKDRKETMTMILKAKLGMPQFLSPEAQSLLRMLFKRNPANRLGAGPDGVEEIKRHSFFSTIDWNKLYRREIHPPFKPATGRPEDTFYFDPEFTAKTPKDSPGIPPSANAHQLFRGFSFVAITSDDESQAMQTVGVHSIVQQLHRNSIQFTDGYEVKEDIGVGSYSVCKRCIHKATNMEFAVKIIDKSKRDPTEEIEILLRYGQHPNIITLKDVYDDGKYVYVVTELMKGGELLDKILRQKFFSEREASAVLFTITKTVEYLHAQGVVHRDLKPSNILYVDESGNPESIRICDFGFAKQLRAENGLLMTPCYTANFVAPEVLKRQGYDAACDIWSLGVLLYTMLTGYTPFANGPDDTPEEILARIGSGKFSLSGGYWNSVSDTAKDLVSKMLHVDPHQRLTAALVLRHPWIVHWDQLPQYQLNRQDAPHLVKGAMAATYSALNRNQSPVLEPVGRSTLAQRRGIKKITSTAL

T2 sequence (P49327 whole entry): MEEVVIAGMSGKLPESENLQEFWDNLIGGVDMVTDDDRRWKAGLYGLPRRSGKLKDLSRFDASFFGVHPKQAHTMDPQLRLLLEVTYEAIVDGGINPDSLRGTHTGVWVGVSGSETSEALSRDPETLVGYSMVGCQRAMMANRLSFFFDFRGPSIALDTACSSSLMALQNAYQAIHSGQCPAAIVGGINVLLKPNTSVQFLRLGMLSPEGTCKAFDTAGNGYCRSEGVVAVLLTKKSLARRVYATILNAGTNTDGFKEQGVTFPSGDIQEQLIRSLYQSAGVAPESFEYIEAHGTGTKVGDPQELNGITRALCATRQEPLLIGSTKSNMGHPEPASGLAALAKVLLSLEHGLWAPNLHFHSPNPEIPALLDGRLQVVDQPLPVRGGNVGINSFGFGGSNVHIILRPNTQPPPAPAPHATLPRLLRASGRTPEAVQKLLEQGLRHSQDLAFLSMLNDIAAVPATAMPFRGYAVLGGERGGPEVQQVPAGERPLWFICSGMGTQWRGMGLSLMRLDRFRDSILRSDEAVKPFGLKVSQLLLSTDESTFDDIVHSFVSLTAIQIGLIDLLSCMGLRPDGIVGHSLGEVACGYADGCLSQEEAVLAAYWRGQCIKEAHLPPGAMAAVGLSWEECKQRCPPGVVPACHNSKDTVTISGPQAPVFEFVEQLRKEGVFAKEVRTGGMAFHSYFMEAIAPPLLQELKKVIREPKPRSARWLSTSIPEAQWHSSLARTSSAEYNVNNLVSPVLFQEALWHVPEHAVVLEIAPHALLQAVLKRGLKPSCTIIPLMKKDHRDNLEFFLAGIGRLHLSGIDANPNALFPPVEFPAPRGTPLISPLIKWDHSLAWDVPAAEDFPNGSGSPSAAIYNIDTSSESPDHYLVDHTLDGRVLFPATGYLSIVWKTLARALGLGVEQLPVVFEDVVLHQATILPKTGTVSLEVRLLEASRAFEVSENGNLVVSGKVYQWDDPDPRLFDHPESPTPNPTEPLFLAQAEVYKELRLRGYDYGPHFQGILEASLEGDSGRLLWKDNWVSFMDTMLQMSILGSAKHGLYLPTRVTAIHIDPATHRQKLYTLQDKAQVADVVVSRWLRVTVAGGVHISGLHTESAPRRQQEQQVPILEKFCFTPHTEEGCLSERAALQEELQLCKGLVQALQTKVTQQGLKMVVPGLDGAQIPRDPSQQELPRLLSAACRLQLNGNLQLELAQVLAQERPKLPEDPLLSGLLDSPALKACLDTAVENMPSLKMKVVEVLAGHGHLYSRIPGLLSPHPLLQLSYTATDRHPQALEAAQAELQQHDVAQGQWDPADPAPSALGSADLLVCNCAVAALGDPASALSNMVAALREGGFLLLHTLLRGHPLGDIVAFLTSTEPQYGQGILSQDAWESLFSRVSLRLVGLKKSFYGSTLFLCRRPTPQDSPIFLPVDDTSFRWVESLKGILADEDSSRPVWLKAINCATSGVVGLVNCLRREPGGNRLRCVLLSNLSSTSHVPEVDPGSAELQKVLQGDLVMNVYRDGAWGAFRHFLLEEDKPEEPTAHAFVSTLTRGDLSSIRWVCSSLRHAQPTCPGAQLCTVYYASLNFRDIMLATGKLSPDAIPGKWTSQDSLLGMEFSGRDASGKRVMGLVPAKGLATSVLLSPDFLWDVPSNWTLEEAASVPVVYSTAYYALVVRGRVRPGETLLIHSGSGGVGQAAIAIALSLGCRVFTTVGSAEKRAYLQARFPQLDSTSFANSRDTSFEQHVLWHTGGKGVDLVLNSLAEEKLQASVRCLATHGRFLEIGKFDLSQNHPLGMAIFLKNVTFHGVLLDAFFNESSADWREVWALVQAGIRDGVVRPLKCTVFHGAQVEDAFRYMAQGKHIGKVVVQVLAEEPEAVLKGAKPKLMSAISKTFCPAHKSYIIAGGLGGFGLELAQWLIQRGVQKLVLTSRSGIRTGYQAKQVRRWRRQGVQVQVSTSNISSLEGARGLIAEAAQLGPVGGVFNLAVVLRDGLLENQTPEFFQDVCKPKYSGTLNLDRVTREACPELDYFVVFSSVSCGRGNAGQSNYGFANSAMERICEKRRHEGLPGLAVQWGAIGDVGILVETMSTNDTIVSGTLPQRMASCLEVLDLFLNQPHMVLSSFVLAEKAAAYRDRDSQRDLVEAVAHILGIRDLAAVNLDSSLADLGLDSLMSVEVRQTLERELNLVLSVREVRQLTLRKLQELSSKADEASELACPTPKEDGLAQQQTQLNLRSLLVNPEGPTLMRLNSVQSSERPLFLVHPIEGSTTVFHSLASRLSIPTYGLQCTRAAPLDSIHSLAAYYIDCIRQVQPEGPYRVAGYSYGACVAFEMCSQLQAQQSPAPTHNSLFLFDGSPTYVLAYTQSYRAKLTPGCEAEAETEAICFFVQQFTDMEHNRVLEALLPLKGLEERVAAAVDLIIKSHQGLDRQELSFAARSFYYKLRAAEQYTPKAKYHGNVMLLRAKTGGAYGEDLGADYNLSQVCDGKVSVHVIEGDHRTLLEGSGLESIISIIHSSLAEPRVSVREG
Chain of Beta Lactamase (Q932Y6 whole entry): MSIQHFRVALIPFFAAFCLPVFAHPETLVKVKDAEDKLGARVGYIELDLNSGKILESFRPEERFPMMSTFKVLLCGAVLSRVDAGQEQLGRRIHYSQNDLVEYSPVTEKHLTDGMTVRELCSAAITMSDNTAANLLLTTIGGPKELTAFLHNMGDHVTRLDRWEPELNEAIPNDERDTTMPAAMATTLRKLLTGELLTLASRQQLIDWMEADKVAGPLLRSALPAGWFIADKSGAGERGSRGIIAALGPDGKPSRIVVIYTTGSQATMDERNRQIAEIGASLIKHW
Chain of Protein kinase C theta type (Q04759 whole entry): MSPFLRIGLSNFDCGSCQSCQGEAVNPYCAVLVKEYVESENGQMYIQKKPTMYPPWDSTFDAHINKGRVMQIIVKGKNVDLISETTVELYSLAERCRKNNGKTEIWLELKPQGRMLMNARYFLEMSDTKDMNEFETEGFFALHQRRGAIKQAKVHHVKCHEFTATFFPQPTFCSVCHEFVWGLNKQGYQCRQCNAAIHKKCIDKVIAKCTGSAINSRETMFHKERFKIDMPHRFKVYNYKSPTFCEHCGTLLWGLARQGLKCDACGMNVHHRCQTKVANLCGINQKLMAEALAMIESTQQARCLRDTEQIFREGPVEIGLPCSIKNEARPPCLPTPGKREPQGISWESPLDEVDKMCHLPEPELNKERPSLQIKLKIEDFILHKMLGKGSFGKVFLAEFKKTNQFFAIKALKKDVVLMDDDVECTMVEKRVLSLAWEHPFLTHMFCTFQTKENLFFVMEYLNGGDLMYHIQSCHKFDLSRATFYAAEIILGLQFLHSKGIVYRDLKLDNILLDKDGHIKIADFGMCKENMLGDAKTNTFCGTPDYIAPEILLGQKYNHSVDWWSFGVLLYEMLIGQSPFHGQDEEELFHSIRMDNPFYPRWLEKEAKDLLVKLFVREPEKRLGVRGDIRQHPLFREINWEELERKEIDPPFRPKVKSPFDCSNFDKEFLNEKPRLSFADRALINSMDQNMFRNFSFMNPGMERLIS
Chain of Mitogen-activated protein kinase 9 (P45984 whole entry): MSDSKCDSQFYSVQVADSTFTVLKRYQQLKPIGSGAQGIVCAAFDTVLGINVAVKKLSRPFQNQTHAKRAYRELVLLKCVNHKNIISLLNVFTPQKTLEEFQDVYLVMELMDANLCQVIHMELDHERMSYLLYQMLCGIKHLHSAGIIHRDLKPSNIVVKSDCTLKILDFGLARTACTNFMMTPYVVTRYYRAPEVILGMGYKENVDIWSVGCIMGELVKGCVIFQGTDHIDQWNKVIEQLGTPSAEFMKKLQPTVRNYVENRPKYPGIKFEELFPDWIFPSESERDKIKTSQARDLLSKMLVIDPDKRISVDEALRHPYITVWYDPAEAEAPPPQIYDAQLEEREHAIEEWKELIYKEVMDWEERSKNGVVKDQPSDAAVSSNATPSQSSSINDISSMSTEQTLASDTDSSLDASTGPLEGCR
Chain of Dual specificity mitogen-activated protein kinase kinase 2 (P36507 whole entry): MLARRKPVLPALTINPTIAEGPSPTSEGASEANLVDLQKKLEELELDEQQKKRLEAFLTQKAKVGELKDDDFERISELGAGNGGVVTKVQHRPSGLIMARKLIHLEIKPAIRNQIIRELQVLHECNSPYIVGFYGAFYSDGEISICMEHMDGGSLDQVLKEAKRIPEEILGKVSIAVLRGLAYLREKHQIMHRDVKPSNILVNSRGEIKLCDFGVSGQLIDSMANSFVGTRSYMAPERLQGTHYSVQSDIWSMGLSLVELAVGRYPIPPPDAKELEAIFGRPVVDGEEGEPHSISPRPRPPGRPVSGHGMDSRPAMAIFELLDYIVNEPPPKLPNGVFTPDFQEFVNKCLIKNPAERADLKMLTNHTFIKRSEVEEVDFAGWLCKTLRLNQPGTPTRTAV

## CN(CCO)c1cc(Sc2nc3ccccc3s2)c2nonc2c1[N+](=O)[O-]
Beta-galactosidase
  EC50: > 40 µM (inactive)
BJ [1]
  EC50: 1.96 µM (active)
BJ [2]
  EC50: 4.95 µM (inconclusive)
[3]
  CC50: > 40 µM (active)
[4]
  AC50: 1.55 µM (active)
Cytochrome P450 2D6
  AC50: 22.4 µM (inconclusive)
Beta Lactamase
  IC50: 8.89 µM (active)
BJ [5]
  EC50: 4.12 µM (active)
[6]
  IC50: > 80 µM (inactive)
[7]
  AC50: 1.26 µM (active)
Cytochrome P450 3A4
  AC50: 22.4 µM (inconclusive)
Fatty acid synthase [8]
  IC50: 2.32 µM (active)
[9]
  EC50: 5.92 µM (active)
[10]
  AC50: 1.62 µM (active)
Fatty acid synthase [11]
  IC50: 2.14 µM (active)
[12]
  IC50: 28.1 µM (active)
[13]
  AC50: 8.18 µM (active)
[14]
  IC50: 18.8 µM (active)
Protein RecA
  EC50: 0.49 µM (active)
[15]
  AC50: 29.3 µM (active)
CHO
  IC50: 1.69 µM (active)
[16]
  IC50: 2.08 µM (active)

## O=Cc1s/c(=N\S(=O)(=O)c2ccccc2)n(CCCCl)c1Cl
Beta Lactamase
  IC50: 19.5 µM (inactive)
[7]
  AC50: 4.19 µM (active)
[17]
  EC50: 2.82 µM (active)
Fatty acid synthase [8]
  IC50: 6.11 µM (active)
[18]
  EC50: 1.39 µM (active)
[19]
  EC50: 9.57 µM (active)
HeLa
  CC50: > 3.67 µM (not active)
[20]
  EC50: > 120 µM (not active)
Fatty acid synthase [11]
  IC50: 3.15 µM (active)
[21]
  EC50: > 60 µM (not active)
Protein RecA
  EC50: 34.9 µM (active)
CHO
  IC50: 1.03 µM (active)

## Nc1nccc2nc(-c3ccccc3)cn12
[22]
  Ki: 50.1 µM (active)
[23]
  Ki: 79.4 µM (active)
[24]
  Ki: 79.4 µM (active)
[25]
  Ki: 79.4 µM (active)
[26]
  Ki: 100 µM (active)
[27]
  Ki: 79.4 µM (active)
[28]
  Ki: 39.8 µM (active)
Activated CDC42 kinase 1
  Ki: 15.8 µM (active)
[29]
  Ki: 50.1 µM (active)
[30]
  Ki: 31.6 µM (active)
[31]
  Ki: 50.1 µM (active)
